Results published in patent publication US20260125382A1, “COMPOUNDS FOR INHIBITING OR DEGRADING CDK2 AND/OR CDK9 AND MEDICINAL USE THEREOF” (KOREA RESEARCH INSTITUTE OF CHEMICAL TECHNOLOGY, priority 2022, published 2026).

Tests used:
CDK9 = target: T1, CDK9 (Homo sapiens, UniProt P50750); test: CDK protein degradation activity (Western blotting), CDK9; assay type: cell-based; conditions: MDA-MB-231 cells, 16 hours, Western blot
T1 construct: endogenous in cells; host or cells: MDA-MB-231
In short: (§1)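 MDA-MB-231; cmpd 100 nM / 1 μM / 10 μM final vs DMSO, 16 h. Triton X-100 lysates (pH 7.5, phosphatase/protease inhibitors) → SDS-PAGE → Western blot, anti-CDK2, anti-CDK9, tubulin loading control; densitometry.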

CDK2 = target: T2, CDK2 (Homo sapiens, UniProt P24941); test: CDK protein degradation activity (Western blotting), CDK2; assay type: cell-based; conditions: MDA-MB-231 cells, 16 hours, Western blot
T2 construct: endogenous in cells; host or cells: MDA-MB-231
In short: as §1

T1 sequence (P50750 whole entry): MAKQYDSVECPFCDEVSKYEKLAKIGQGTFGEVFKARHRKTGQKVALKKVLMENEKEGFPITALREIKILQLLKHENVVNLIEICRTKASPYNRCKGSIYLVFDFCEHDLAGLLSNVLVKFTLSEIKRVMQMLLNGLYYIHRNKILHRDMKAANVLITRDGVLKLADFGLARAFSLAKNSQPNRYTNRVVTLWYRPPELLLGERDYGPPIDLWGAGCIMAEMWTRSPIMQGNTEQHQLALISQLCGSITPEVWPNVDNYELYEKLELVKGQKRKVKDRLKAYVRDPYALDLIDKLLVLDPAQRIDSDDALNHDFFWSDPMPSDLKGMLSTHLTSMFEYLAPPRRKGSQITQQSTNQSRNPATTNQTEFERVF

SMILES | Enzyme degradation CDK9 (% remaining) @ 0.1 μM (CDK9) | Enzyme degradation CDK9 (% remaining) @ 1 μM (CDK9) | Enzyme degradation CDK9 (% remaining) @ 10 μM (CDK9) | Enzyme degradation CDK2 (% remaining) @ 0.1 μM (CDK2) | Enzyme degradation CDK2 (% remaining) @ 1 μM (CDK2) | Enzyme degradation CDK2 (% remaining) @ 10 μM (CDK2)
Cc1cccc(C(=O)NC2CC(n3cnc4c(Nc5ccc(N6CCN(CC7CCN(c8cccc9c8C(=O)N([C@H]8CCC(=O)NC8=O)C9=O)CC7)CC6)cc5)ncnc43)C2)n1 (stereo partly drawn) [Compound 89, N-((1s,3s)-3-(6-((4-(4-((1-(2-(2,6-dioxopiperidin-3-yl)-1,3-dioxoisoindolin-4-yl)piperidin-4-yl)methyl)piperazin-1-yl)phenyl)amino)-9H-purin-9-yl)cyclobutyl)-6-methylpicolinamide] | 10% | 0% | 0% | 70% | 50% | 90%
Cc1cccc(C(=O)N[C@H]2C[C@@H](n3cnc4c(Nc5ccc(N6CCN(CC7CCN(C(=O)COc8ccc9c(c8)C(=O)N([C@H]8CCC(=O)NC8=O)C9=O)CC7)CC6)cc5)ncnc43)C2)n1 [Compound 90, N-((1s,3s)-3-(6-((4-(4-((1-(2-((2-(2,6-dioxopiperidin-3-yl)-1,3-dioxoisoindolin-5-yl)oxy)acetyl)piperidin-4-yl)methyl)piperazin-1-yl)phenyl)amino)-9H-purin-9-yl)cyclobutyl)-6-methylpicolinamide] | 0/0/0% | 0/0/0% | 0/0/0% | 40% | 20% | 10%
Cc1cccc(C(=O)NC2CC(n3cnc4c(Nc5ccc(N6CCN(CC7CCN(C(=O)CNc8ccc9c(c8)C(=O)N([C@H]8CCC(=O)NC8=O)C9=O)CC7)CC6)cc5)ncnc43)C2)n1 (stereo partly drawn) [Compound 92, N-((1s,3s)-3-(6-((4-(4-((1-((2-(2,6-dioxopiperidin-3-yl)-1,3-dioxoisoindolin-5-yl)glycyl)piperidin-4-yl)methyl)piperazin-1-yl)phenyl)amino)-9H-purin-9-yl)cyclobutyl)-6-methylpicolinamide] | 10% | 0% | 0% | 40% | 20% | 20%
Cc1cccc(C(=O)NC2CC(n3cnc4c(Nc5ccc(N6CCN(CC7CCN(C(=O)CNc8cccc9c8C(=O)N([C@H]8CCC(=O)NC8=O)C9=O)CC7)CC6)cc5)ncnc43)C2)n1 (stereo partly drawn) [Compound 93, N-((1s,3s)-3-(6-((4-(4-((1-((2-(2,6-dioxopiperidin-3-yl)-1,3-dioxoisoindolin-4-yl)glycyl)piperidin-4-yl)methyl)piperazin-1-yl)phenyl)amino)-9H-purin-9-yl)cyclobutyl)-6-methylpicolinamide] | 0/0/0% | 0/0/0% | 0/0/0% | 0% | 10% | 10%
Cc1cccc(C(=O)N[C@H]2C[C@@H](n3cnc4c(NCc5cccc(OCCCN6CCN(C(=O)COc7cccc8c7C(=O)N([C@H]7CCC(=O)NC7=O)C8=O)CC6)c5)ncnc43)C2)n1 [Compound 101, N-((1s,3s)-3-(6-((3-(3-(4-(2-((2-(2,6-dioxopiperidin-3-yl)-1,3-dioxoisoindolin-4-yl)oxy)acetyl)piperazin-1-yl)propoxy)benzyl)amino)-9H-purin-9-yl)cyclobutyl)-6-methylpicolinamide] | 80% | 30% | 30% | 70% | 50% | 40%
Cc1cccc(C(=O)N[C@H]2C[C@@H](n3cnc4c(NCc5cccc(OCCCN6CCN(C(=O)CNc7cccc8c7C(=O)N([C@H]7CCC(=O)NC7=O)C8=O)CC6)c5)ncnc43)C2)n1 [Compound 103, N-((1s,3s)-3-(6-((3-(3-(4-((2-(2,6-dioxopiperidin-3-yl)-1,3-dioxoisoindolin-4-yl)glycyl)piperazin-1-yl)propoxy)benzyl)amino)-9H-purin-9-yl)cyclobutyl)-6-methylpicolinamide] | 30% | 10% | 10% | 40% | 40% | 60%
Cc1cccc(C(=O)N[C@H]2C[C@@H](n3cnc4c(NCc5ccc(OCC6CCN(C(=O)COc7ccc8c(c7)C(=O)N([C@H]7CCC(=O)NC7=O)C8=O)CC6)cc5)ncnc43)C2)n1 [Compound 106, N-((1s,3s)-3-(6-((4-((1-(2-((2-(2,6-dioxopiperidin-3-yl)-1,3-dioxoisoindolin-5-yl)oxy)acetyl)piperidin-4-yl)methoxy)benzyl)amino)-9H-purin-9-yl)cyclobutyl)-6-methylpicolinamide] | 70% | 0% | 0% | 70% | 50% | 50%

Now from value to compound:

Enzyme degradation CDK9 (% remaining) @ 0.1 μM (CDK9) | Enzyme degradation CDK9 (% remaining) @ 1 μM (CDK9) | Enzyme degradation CDK9 (% remaining) @ 10 μM (CDK9) | Enzyme degradation CDK2 (% remaining) @ 0.1 μM (CDK2) | Enzyme degradation CDK2 (% remaining) @ 1 μM (CDK2) | Enzyme degradation CDK2 (% remaining) @ 10 μM (CDK2) | SMILES
50% | 10% | 20% | 80% | 60% | 90% | Cc1cccc(C(=O)N[C@H]2C[C@@H](n3cnc4c(NCc5cccc(OCC6CCN(C(=O)COc7ccc8c(c7)C(=O)N([C@H]7CCC(=O)NC7=O)C8=O)CC6)c5)ncnc43)C2)n1 [Compound 94, N-((1s,3s)-3-(6-((3-((1-(2-((2-(2,6-dioxopiperidin-3-yl)-1,3-dioxoisoindolin-5-yl)oxy)acetyl)piperidin-4-yl)methoxy)benzyl)amino)-9H-purin-9-yl)cyclobutyl)-6-methylpicolinamide]
10% | 0% | 0% | 60% | 40% | 50% | Cc1cccc(C(=O)N[C@H]2C[C@@H](n3cnc4c(NCc5cccc(OCC6CCN(C(=O)CNc7ccc8c(c7)C(=O)N(C7CCC(=O)NC7=O)C8=O)CC6)c5)ncnc43)C2)n1 (stereo partly drawn) [Compound 96, N-((1s,3s)-3-(6-((3-((1-((2-(2,6-dioxopiperidin-3-yl)-1,3-dioxoisoindolin-5-yl)glycyl)piperidin-4-yl)methoxy)benzyl)amino)-9H-purin-9-yl)cyclobutyl)-6-methylpicolinamide]
90% | 20% | 10% | 100% | 70% | 70% | Cc1cccc(C(=O)N[C@H]2C[C@@H](n3cnc4c(NCc5cccc(OCCCN6CCN(C(=O)CNc7ccc8c(c7)C(=O)N([C@H]7CCC(=O)NC7=O)C8=O)CC6)c5)ncnc43)C2)n1 [Compound 102, N-((1s,3s)-3-(6-((3-(3-(4-((2-(2,6-dioxopiperidin-3-yl)-1,3-dioxoisoindolin-5-yl)glycyl)piperazin-1-yl)propoxy)benzyl)amino)-9H-purin-9-yl)cyclobutyl)-6-methylpicolinamide]
